Source: patent US10064911B2, “Peptides for treating cancer” (The Board of Trustees of the University of Illinois, priority 2015, dated 2018)
“Also recorded” adds a separate entry of the source.

Tests used:
endothelial cell = assay type: cell-based; details: data not shown
[1] = test system: human umbilical vein endothelial cells; experiment: In vitro tubulogenesis in 2D matrigel model; assay type: cell-based; details: 1 μM; assessed 16 hours after plating on matrigel
Procedure: (§1) Group 1 was treated with control peptide and group 3 was treated with Myr-EBIN at 0, 36 and 60 hrs; group 2 received only 36 and 60 hour treatment. […] Scale bar, 200 μm.
The effect of EBIN on in vitro tubulogenesis and in vivo angiogenesis was investigated using matrigel models. A single cell suspension of human umbilical vein endothelial cells was plated above matrigel-coated wells in the presence of 1 μM EBIN or control peptide; tube formation was assessed 16 hours later.

[2] = test system: laser-induced choroidal neovascularization (CNV); details: 1 μg/eye single intravitreal injection; day 15; versus control peptide
Procedure: Quantification of the area of fluorescein leakage (FIG. 11D) and lesion (FIG. 11E) using images shown in (FIG. 11A) and (FIG. 11C); n=6-9 mice per group; **, p<0.01. […] Comparison between groups were performed using ANOVA.
To assess the barrier-protective and anti-angiogenic activities of EBIN, EBIN is tested in murine models of CNV. In addition to treatment with EBIN, LEAF™ antibody (a monoclonal rat antibody against mouse VEGF-A) and control peptide (Myr-FAEIPTI), were used as positive and negative experimental controls, respectfully.
Mice were anesthetized with a mixture of ketamine/xylazine (100 mg/5 mg/kg IP) and their pupils were dilated with a topical application of Cyclomydril (Alcon Laboratories, Fort Worth, Tex.). The fundus was viewed with an imaging camera, and laser photocoagulation was induced using the image-guided laser system (Micron IV, Phoenix Research Laboratories, Pleasanton, Calif.). Four laser burns at equal distance from the optic nerve were induced one by one in right eye by a green Argon laser pulse with a wavelength of 532 nm, a fixed diameter of 50 μm, duration of 70 ms, and power levels from 210-250 mW. Appearance of bubble or a small subretinal hemorrhage (diameter <1 mm) at the laser spot serves to indicate rupture of the Bruch's membrane and as confirmation of laser-induced CNV. This procedure was performed only on the right eye of each mouse. […]

[3] = test system: MDA-MB-231 human breast cancer cells; experiment: Triple negative breast cancer xenograft: tumor growth and neovascularization; assay type: in vivo, Nude mice; details: for number of vessels outside of the tumor: H&E staining
From the text: FIG. 8A plots tumor growth curve in xenograft model; mean is shown; n=8 mice per group. FIG. 8B plots the number of vessels per area counted outside of the tumor; n=25 fields/mouse; N=5 mice; *, p<0.05; **, p<0.01.
The effect of EBIN on growth rate of triple negative (estrogen receptor [ER], progesterone receptor [PR] and human epidermal growth factor receptor-2 [HER-2] are not expressed in this cell line) human breast cancer cells using a xenograft model was investigated. Nude mice (n=8 mice per group) were injected with 3×10^6 MDA-MB-231 human breast cancer cells into the upper left mammary fat pad. All mice developed the tumor by day 13. At that time point, mice were randomized and divided by 5 groups and each group received the treatment. Study was terminated at day 24 when the tumor reached 2000 mm^3 in size. The treatment with control peptide and EBIN was performed daily for 7 days. EBIN and control peptide were delivered via tail vein injection. Control peptide was injected at 5 μM/kg body weight. EBIN was injected at 1 μM/kg and 5 μM/kg body weight.
Treatment with taxol was performed via intraperitoneal injection at 10 μM/kg body weight for 4 days. Tumor size was measured 3 times a week.
To correlate the effect of EBIN treatment with tumor neovascularization, tumor tissue was collected, fixed and stained with hematoxylin and eosin (H&E). Number of […] outside of the tumor mass was scored and normalized per area.

[4] = Acute toxicity testing in vivo (eye); parameters: species or system C57BL/6 mice
Procedure: Representative images of Fundus Fluorescein Angiography F and corresponding Optical Coherence Tomography (FIG. 12B) at day 8 of intravitreal treatment with EBIN (1 μg/eye).
A short term study is designed to assess safety of administration in vivo. C57BL/6 mice (n=10, 5 mice per group/treatment route) are randomized and divided into two groups. The first group is treated with EBIN in the right eye via eye drops delivered twice daily, 5 μg per eye (10 μl) and, the second group is treated with intravitreal injection of EBIN in the right eye at the maximum dose, 1 μg per eye (2 μl) on day one. The intravitreal injection is performed under ketamine/xylazine (100 mg/5 mg/kg) anesthesia. Both groups are monitored daily for general health including body weight as well as any eye abnormalities including opacity, exophthalmia enophthalmia, conjunctivitis, abnormal secretions or crusting, and corneal ulcers for a period of 8 days. Animals are subsequently subjected to fluorescein angiography and OCT imaging.

[5] = test system: human VEGF-induced vascular leakage; experiment: VEGF-induced subcutaneous vascular leakage of albumin-bound Evans Blue; assay type: in vivo, Balb/cJ mice; details: pretreated 1 μM/kg; human VEGF 50 ng/kg intradermal; measured at 620 nm
Procedure: A study investigating whether injection of the EBIN prevented vascular endothelial growth factor (VEGF)-induced microvascular leakage was carried out. Balb/cJ mice were pretreated with the EBIN peptide (1 μM/kg) or a control peptide (2T→A mutation) and then human VEGF (50 ng/kg body weights) was intradermally injected to induce vascular leakage of albumin-bound Evans Blue (see FIG. 6A). In addition, the formamide-extracted Evans Blue was quantified spectrophotometically at 620 nm and corrected for hemoglobin (740 nm) and skin weight (see FIG. 6B).

[6] = test system: blood vessels ingrowth into matrigel plugs; experiment: In vivo ectopic matrigel plug angiogenesis; parameters: species or system mice; details: for number of vessels / vessel formation in matrigel plugs: matrigel with heparin and VEGF, plugs removed at 96 hours, HE staining
Procedure: as §1
EBIN effect on blood vessels in growth in an in vivo model of ectopic matrige angiogenesis was also investigated. Blood vessel in growth matrigel was pre-mixed with heparin and VEGF but not with endothelial cells, and i.p. injected into low abdomen of mice. There were two 400 μL plugs per mouse. […] These vessels were functional and perfused with blood that is apparent from the presence of red blood cells inside the vessels. In addition, mice were treated with EBIN at the time of matrigel injection (FIG. 7C,2; Group 2) or 36 hrs after matrigel (FIG. 7C,3; Group 3). Matrigel plugs were removed at 96 hours, fixed and stained with HE to assess the vessel formation.

HMVECs = experiment: Thrombin-induced Ca2+ release from ER stores in HMVECs (Fura 2-AM); assay type: cell-based; details: pre-treatment with 5 μg/ml for 20 min prior to thrombin stimulation
Procedure: (FIG. 4A) HMVECs pre-treated with AP-attached IP3R3 peptide or control (AP) peptide were loaded with Fura 2-AM and 340/380 ratio was calculated after stimulation of cells with thrombin (50 nM) in the absence and in the presence of extracellular Ca^2+. Arrow, time of thrombin addition. […] The increase is normalized to control non-treated cells from the same experiment (n=4).
[…] contains EB binding consensus motif, Ser/Thr-x-Ile-Pro (SxIP) (SEQ ID NO: 5). […] The role of the interaction between EB3 and IP3R3 was recently described by Geyer et al., Cell Rep 12(1):79-89; 2015. […] The effects of IP3R3 peptide and taxol were compared in regulating Ca^2+ release.

Compound	endothelial cell death or cell cycle arrest (endothelial cell)	tube formation (tubulogenesis) [1]	vascular leakage (area of fluorescein leakage) [2]	number of vessels outside of the tumor ([3]; 5 μM/kg, tail vein)	tumor growth rate ([3]; tail vein injection, 1 μM/kg body weight daily for 7 days)	tumor size ([3]; tail vein injection, 5 μM/kg body weight daily for 7 days)	toxicity ([4]; eye drops 5 μg per eye twice daily or intravitreal 1 μg per eye, 8 days, with or without CNV induction)	crystals/precipitates in the eye ([4]; intravitreal 1 μg/eye, day 8)	changes in retinal vasculature, retinal pigment epithelium, choroid, sclera ([4]; intravitreal 1 μg/eye, day 8, angiography and OCT)	subcutaneous vascular leak of albumin-bound Evans Blue [5]	number of vessels / vessel formation in matrigel plugs [6]	effect of post-treatment versus treatment on vessel ingrowth ([6]; treatment started 36 hrs after matrigel versus at the time of matrigel injection)	number of vessels outside of the tumor ([3]; 10 μM/kg intraperitoneal for 4 days)	tumor growth ([3]; intraperitoneal injection at 10 μM/kg body weight for 4 days)	release of Ca2+ from ER in response to thrombin (HMVECs)
FTEIPTI [EBIN]	did not induce endothelial cell death or cell cycle arrest	significantly abolished formation of tubes; also recorded: inhibited tubulogenesis	significantly reduced	significantly reduced; also recorded: superior effect as compared to taxol	developed the tumor at the same rate as untreated mice	reduction in the tumor size; also recorded: significantly smaller as compared to control untreated group	No toxicity was observed	forms small crystals/precipitates inside of various humor	no visible changes	significantly inhibited subcutaneous vascular leak	markedly reduced	post-treatment was as effective as a treatment			
FAEIPTI [reference compound]											newly formed blood vessels grew into the matrigel				
CC(=O)O[C@H]1C(=O)[C@@]2(C)[C@H]([C@H](OC(=O)c3ccccc3)[C@]3(O)C[C@H](OC(=O)[C@H](O)[C@@H](NC(=O)c4ccccc4)c4ccccc4)C(C)=C1C3(C)C)[C@]1(OC(C)=O)CO[C@@H]1C[C@@H]2O [taxol, reference compound]													significantly reduced	significant delay in the tumor growth	inhibits release of Ca^2+ from ER to the same extent as IP3R3 peptide
